The text below walks through data of patent publication US20230374038A1, “MODULATORS OF CYSTIC FIBROSIS TRANSMEMBRANE CONDUCTANCE REGULATOR” (VERTEX PHARMACEUTICALS INCORPORATED, priority 2020, published 2023).

For assay [1], the target named is CFTR (Homo sapiens, UniProt P13569). The experiment in a line: Membrane Potential Dye, Enteroid Assay A. To be noted: for EC50: read-out: Ent. A EC50. In kind it is cell-based. On the procedure:
Base medium (ADF+++) consisted of Advanced DMEM/Ham's F12, 2 mM Glutamax, 10 mM HEPES, 1 µg/mL penicillin/streptomycin.
Intestinal enteroid maintenance medium (IEMM) consisted of ADF+++, 1× B27 supplement, 1× N2 supplement, 1.25 mM N-acetyl cysteine, 10 mM Nicotinamide, 50 ng/mL hEGF, 10 nM Gastrin, 1 pg/mL hR-spondin-1, 100 ng/mL hNoggin, TGF-b type 1 inhibitor A-83-01, 100 μg/mL Primocin, […] P38 MAPK inhibitor SB202190.
Bath 1 Buffer consisted of 1 mM MgCl2, 160 mM NaCl, 4.5 mM KCl, 10 mM HEPES, 10 mM Glucose, 2 mM CaCl2).
Chloride Free Buffer consisted of 1 mM Magnesium Gluconate, 2 mM Calcium Gluconate, 4.5 mM Potassium Gluconate, 160 mM Sodium Gluconate, 10 mM HEPES, 10 mM Glucose.
Bath1 Dye Solution consisted of Bath 1 Buffer, 0.04% Pluronic F127, […] Methyl Oxonol, 30 μM CaCCinh-A01, 30 μM Chicago Sky Blue.
Chloride Free Dye Solution consisted of Chloride Free Buffer, 0.04% Pluronic F127, 20 μM Methyl Oxonol, 30 μM CaCCinh-A01, 30 μM Chicago Sky Blue.
Chloride Free Dye Stimulation Solution consisted of Chloride Free Dye Solution, 10 μM forskolin, 100 μM IBMX, and 300 nM Compound III.
Human intestinal epithelial enteroid cells were obtained from the Hubrecht Institute for Developmental Biology and Stem Cell Research, Utrecht, The Netherlands and expanded in T-Flasks as previously described (Dekkers J F, Wiegerinck C L, de Jonge H R, Bronsveld I, Janssens H M, de Winter-de Groot K M, Brandsma A M, de Jong N W M, Bijvelds M J C, Scholte B J, Nieuwenhuis E E S, van den Brink S, Clevers H, van der Ent C K, Middendorp S and M Beekman J M. A functional CFTR assay using primary cystic fibrosis intestinal organoids. Nat Med. 2013 July; 19(7):939-45.).
Cells were recovered in cell recovery solution, collected by centrifugation at 650 rpm for 5 min at 4° C., resuspended in TryPLE and incubated for 5 min at 37° C. Cells were then collected by centrifugation at 650 rpm for 5 min at 4° C. and resuspended in IEMM containing 10 μM ROCK inhibitor (RI). The cell suspension was passed through a 40 μm cell strainer and resuspended at 1×10^6 cells/mL in IEMM containing 10 μM RI. Cells were seeded at 5000 cells/well into multi-well plates and incubated for overnight at 37° C., 95% humidity and 5% CO2 prior to assay.
Enteroid cells were incubated with test compound in IEMM for 18-24 hours at 37° C., 95% humidity and 5% CO2. […] Briefly, cells were washed 5 times in Bath 1 Buffer. Bath 1 Dye Solution was added, and the cells were incubated for 25 min at room temperature. Following dye incubation, cells were washed 3 times in Chloride Free Dye Solution. Chloride transport was initiated by addition of Chloride Free Dye Stimulation Solution and the fluorescence signal was read for 15 min. […] Chloride transport was then expressed as a percentage of the chloride transport following treatment with 3 μM (S)—N-((6-aminopyridin-2-yl)sulfonyl)-6-(3-fluoro-5-isobutoxyphenyl)-2-(2,2,4-trimethylpyrrolidin-1-yl)nicotinamide, 3 μM (R)-1-(2,2-difluorobenzo[d][1,3]dioxol-5-yl)-N-(1-(2,3-dihydroxypropyl)-6-fluoro-2-(1-hydroxy-2-methylpropan-2-yl)-1H-indol-5-yl)cyclopropanecarboxamide and 300 nM acute N-[2,4-bis(1,1-dimethylethyl)-5-hydroxyphenyl]-1,4-dihydro-4-oxoquinoline-3-carboxamide triple combination control (% Activity).

Assay [2] has as its target T1, CFTR (Homo sapiens, UniProt P13569, DEL508-508).
T1 construct: endogenous in cells; host or cells: primary human bronchial epithelial cells, F508del/MF genotype
The assay can be described thus: HBE Assay: Ussing chamber assay of CFTR-mediated short-circuit currents in F508del/MF-HBE cells with 1 μM Ivacaftor. The note with it: 20% human serum; for EC50 / HBE Max Activity / Emax: 18-24 hours; for Emax: compared to known Vertex corrector with 18 μM Tezacaftor and 1 μM Ivacaftor, read-out: HBE Max activity (%); for HBE Activity at 10 μM: single fixed concentration of 10 μM. In kind it is cell-based. The method, boiled down: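 F508del/MF-HBE cells at air-liquid interface >14 days were incubated 18-24 h at 37° C with corrector (concentration range or fixed 10 μM) plus 1 μM Ivacaftor in 20% human serum, compounds kept throughout. Ussing chamber, Vhold=0 mV, 37° C, apical amiloride 30 μM; ISC (μA/cm^2) from peak 20 μM forskolin response to steady state after CFTR inhibitor cocktail.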

Setting [3] is: range of concentrations with 1 μM Ivacaftor.

Bounds are passed on as bounds.

Chain of CFTR (Homo sapiens, UniProt P13569) (P13569 with tags, fused parts or gaps DEL508-508): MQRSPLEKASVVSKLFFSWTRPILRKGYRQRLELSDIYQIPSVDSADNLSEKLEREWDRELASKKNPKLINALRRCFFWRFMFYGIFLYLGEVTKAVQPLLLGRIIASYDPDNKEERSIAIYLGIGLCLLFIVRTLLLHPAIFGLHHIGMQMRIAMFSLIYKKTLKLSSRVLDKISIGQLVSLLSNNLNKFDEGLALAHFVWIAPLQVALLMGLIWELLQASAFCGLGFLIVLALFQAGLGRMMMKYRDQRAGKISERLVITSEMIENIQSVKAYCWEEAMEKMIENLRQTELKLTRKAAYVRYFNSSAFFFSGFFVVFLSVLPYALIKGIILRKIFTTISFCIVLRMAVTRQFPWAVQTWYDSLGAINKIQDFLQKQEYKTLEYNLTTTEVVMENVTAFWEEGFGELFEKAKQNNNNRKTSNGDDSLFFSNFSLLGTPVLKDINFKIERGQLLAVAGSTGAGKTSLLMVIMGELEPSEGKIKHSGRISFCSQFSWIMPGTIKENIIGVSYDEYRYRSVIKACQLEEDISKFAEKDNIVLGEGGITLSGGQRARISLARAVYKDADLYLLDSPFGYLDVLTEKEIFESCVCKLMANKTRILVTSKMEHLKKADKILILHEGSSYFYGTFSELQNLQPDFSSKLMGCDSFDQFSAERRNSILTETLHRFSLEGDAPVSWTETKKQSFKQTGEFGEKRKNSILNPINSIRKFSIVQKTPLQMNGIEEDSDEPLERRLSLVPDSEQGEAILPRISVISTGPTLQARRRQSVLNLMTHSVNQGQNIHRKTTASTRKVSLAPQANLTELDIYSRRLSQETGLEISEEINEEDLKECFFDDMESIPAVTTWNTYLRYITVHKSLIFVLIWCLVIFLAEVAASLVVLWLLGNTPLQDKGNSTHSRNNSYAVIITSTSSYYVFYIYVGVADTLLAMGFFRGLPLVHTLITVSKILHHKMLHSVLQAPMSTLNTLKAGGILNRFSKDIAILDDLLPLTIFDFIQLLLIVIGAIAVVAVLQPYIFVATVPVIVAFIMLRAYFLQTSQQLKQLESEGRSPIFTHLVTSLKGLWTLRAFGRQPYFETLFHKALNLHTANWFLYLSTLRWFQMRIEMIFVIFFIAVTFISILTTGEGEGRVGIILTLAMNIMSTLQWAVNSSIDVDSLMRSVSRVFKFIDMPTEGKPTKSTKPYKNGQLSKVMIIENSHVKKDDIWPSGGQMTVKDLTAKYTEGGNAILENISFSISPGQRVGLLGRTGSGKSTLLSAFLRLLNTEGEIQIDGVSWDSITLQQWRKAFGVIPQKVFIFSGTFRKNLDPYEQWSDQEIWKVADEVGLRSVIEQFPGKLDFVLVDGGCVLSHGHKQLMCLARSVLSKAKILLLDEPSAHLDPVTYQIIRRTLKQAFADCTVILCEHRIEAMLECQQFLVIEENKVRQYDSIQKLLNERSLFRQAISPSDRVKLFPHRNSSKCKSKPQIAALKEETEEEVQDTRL
T1 sequence (P13569 with tags, fused parts or gaps DEL508-508): as above

Regarding `Cc1ncccc1-c1nc2nc(c1C(F)(F)F)OC1CN(Cc3ccccc31)C(=O)c1cccc(c1)S(=O)(=O)N2` (centres unmarked) [Compound 40, 12-(2-Methyl-3-pyridyl)-8,8-dioxo-13-(trifluoromethyl)-15-oxa-8λ^6-thia-1,9,11,25-tetrazapentacyclo[14.7.1.13,7.110,14.017,22]hexacosa-3,5,7(26),10(25),11,13,17(22),18,20-nonaen-2-one], the “Ent. A Max Activity” value in assay [1] was “+ (+ is <30%)”. `CCc1c2nc(nc1-c1c(C)cccc1C)NS(=O)(=O)c1cccc(c1)C(=O)NCC(c1ccc(C(C)(C)C)cc1)O2` (centres unmarked) [Compound 178]: in assay [1], the “Ent. A Max Activity” value is recorded as “+++ (+++ is >60%)” and the EC50 is less than 1000 nM. The matching figures for `Cc1ccccc1-c1nc2nc(c1C(C)(C)C)OC1CN(Cc3ccccc31)C(=O)c1cccc(c1)S(=O)(=O)N2` (centres unmarked) [Compound 39, 13-tert-Butyl-12-(o-tolyl)-8,8-dioxo-15-oxa-8λ^6-thia-1,9,11,25-tetrazapentacyclo[14.7.1.13,7.110,14.017,22]hexacosa-3,5,7(26),10(25),11,13,17(22),18,20-nonaen-2-one]: “++ (++ is 30-60%)” and less than 1000 nM. The matching figures for `CCc1c2nc(nc1-c1ccccc1OC)NS(=O)(=O)c1cccc(c1)NC(=O)c1cccc(c1)O2` [Compound 23]: “++ (++ is 30-60%)” and 3000 to 30000 nM. On to `CCc1c2nc(nc1-c1ccncc1C)NS(=O)(=O)c1cccc(c1)NC(=O)c1cccc(c1)O2` [Compound 22], for which the “Ent. A Max Activity” value in assay [1] is reported as “+ (+ is <30%)”. Same read-out and setting: next, `CCc1c2nc(nc1-c1ccccc1)NS(=O)(=O)c1cccc(c1)NC(=O)c1cccc(c1)O2` [Compound 30]: “+ (+ is <30%)”. The same measure, in the same setting: next, `CCc1c2nc(nc1-c1cccnc1C)NS(=O)(=O)c1cccc(c1)NC(=O)c1cccc(c1)O2` [Compound 7, 4-Ethyl-5-(2-methylpyridin-3-yl)-2-oxa-9λ^6-thia-6,8,15,23-tetraazatetracyclo[15.3.1.13,7.110,14]tricosa-1(21),3,5,7(23),10(22),11,13,17,19-nonaene-9,9,16-trione]: “+ (+ is <30%)”. On to `CCc1c2nc(nc1-c1c(C)ccc(OCCC(C)C)c1C)NS(=O)(=O)c1cccc(c1)NC(=O)c1cccc(c1)O2` [Compound 9], for which, in assay [1], the “Ent. A Max Activity” value was “++ (++ is 30-60%)” and the EC50 was less than 1000 nM. The matching figures for `Cc1ccccc1-c1nc2nc(c1C(F)(F)F)OC1CN(Cc3ccccc31)C(=O)c1cccc(c1)S(=O)(=O)N2` (centres unmarked) [Compound 43]: “+++ (+++ is >60%)” and less than 1000 nM. Turning to `Cc1ccnc(CN2C(=O)c3cccc(c3)S(=O)(=O)Nc3nc(c(C)c(-c4c(C)cccc4CC4CCCCC4)n3)OC[C@H]2CC(C)(C)C)n1` (atropisomer, axis not shown) [Compound 258], in assay [2] (with 1 μM Ivacaftor), the EC50 was less than 1000 nM and the “HBE Max Activity” value is reported as “+++ (+++ is >600%)”. The matching figures for `Cc1cccc(CC2CCCC2)c1-c1nc2nc(c1C)OC[C@@H](CC(C)(C)C)N(Cc1ncc(OC(C)C)cn1)C(=O)c1cccc(c1)S(=O)(=O)N2` (atropisomer, axis not shown) [Compound 266]: less than 1000 nM and “+++ (+++ is >600%)”. The matching figures for `Cc1cccc(CC(C)C)c1-c1nc2nc(c1C)OC[C@@H](CC(C)(C)C)N(Cc1cnc(C3CCOCC3)cn1)C(=O)c1cccc(c1)S(=O)(=O)N2` (atropisomer, axis not shown) [Compound 313]: less than 1000 nM and “+++ (+++ is >600%)”.

For `Cc1cccc(C)c1-c1nc2nc(c1F)OC[C@@H](CC(C)C)N(Cc1ncc(OC3CCC3)cn1)C(=O)c1cccc(c1)S(=O)(=O)N2` [Compound 338], the EC50 in assay [2] (setting [3]) was less than 1000 nM. For the same compound, in assay [2] (with 1 μM Ivacaftor), the Emax was more than 60%.

For the compound `Cc1cccc(C)c1-c1nc2nc(c1F)OC[C@@H](CC(C)C)N(Cc1ncc(N3CCC(C)(C)C3)cn1)C(=O)c1cccc(c1)S(=O)(=O)N2` [Compound 342], the EC50 in assay [2] (setting [3]) is less than 1000 nM. Besides, in assay [2] (with 1 μM Ivacaftor), the Emax was more than 60%.

With `Cc1cccc(C(C)C)c1-c1nc2nc(c1C)OC[C@@H](CC(C)(C)C)N(Cc1ccc(N3CCOCC3)cn1)C(=O)c1cccc(c1)S(=O)(=O)N2` (atropisomer, axis not shown) [Compound 300], in assay [2] (with 1 μM Ivacaftor), the 50% effective concentration (EC50) is less than 1000 nM and the “HBE Max Activity” value is recorded as “+++ (+++ is >600%)”. Take `Cc1cccc(CC(C)(C)C)c1-c1nc2nc(c1C)OC[C@@H](CC(C)(C)C)N(Cc1ncc(N3CCC(C)(C)C3)cn1)C(=O)c1cccc(c1)S(=O)(=O)N2` (atropisomer, axis not shown; (M)) [Compound 214, (5M,11R)-11-(2,2-dimethylpropyl)-6-[2-(2,2-dimethylpropyl)-6-methylphenyl]-12-{[5-(3,3-dimethylpyrrolidin-1-yl)pyrimidin-2-yl]methyl}-7-methyl-9-oxa-2λ^6-thia-3,5,12,19-tetraazatricyclo[12.3.1.14,8]nonadeca-1(17),4(19),5,7,14(18),15-hexaene-2,2,13-trione]: the “HBE Activity at 10 μM” value in assay [2] (with 1 μM Ivacaftor) is listed as “++ (++ is 30-60%)”.

As for `COc1c2nc(nc1-c1c(C)cccc1C)NS(=O)(=O)c1cccc(c1)C(=O)N(Cc1ncc(OC3CCC3)cn1)[C@H](CC(C)C)CO2` [Compound 349], in assay [2] (setting [3]), the concentration giving a half-maximal response (EC50) is less than 1000 nM. Besides, the Emax in assay [2] (with 1 μM Ivacaftor) is more than 60%. The matching figures for `Cc1cccc(OC(C)C)c1-c1nc2nc(c1C)OC[C@@H](CC(C)(C)C)N(Cc1cncc(N(C)CC(C)(C)C)n1)C(=O)c1cccc(c1)S(=O)(=O)N2` (atropisomer, axis not shown) [Compound 332]: less than 1000 nM and more than 60%. Turning to `Cc1cccc(CC(C)C)c1-c1nc2nc(c1C)OC[C@@H](CC(C)C)N(Cc1cnc(C3CCOCC3)cn1)C(=O)c1cccc(c1)S(=O)(=O)N2` (atropisomer, axis not shown) [Compound 315], the “HBE Activity at 10 μM” value in assay [2] (with 1 μM Ivacaftor) was “+++ (+++ is >600%)”. On to `Cc1cccc(CC(C)C)c1-c1nc2nc(c1C)OC[C@@H](CC(C)(C)C)N(Cc1ncc(N(C)CC(C)(C)C)cn1)C(=O)c1cccc(c1)S(=O)(=O)N2` (single isomer, unassigned) [Compound 211], for which, in assay [2] (with 1 μM Ivacaftor), the EC50 is less than 1000 nM and the “HBE Max Activity” value is reported as “+++ (+++ is >600%)”. In the case of `Cc1cccc(COC(C)C)c1-c1nc2nc(c1C)OC[C@@H](CC(C)(C)C)N(Cc1nccc(N(C)C(C)C)n1)C(=O)c1cccc(c1)S(=O)(=O)N2` (atropisomer, axis not shown) [Compound 229], the “HBE Activity at 10 μM” value in assay [2] (with 1 μM Ivacaftor) is “+++ (+++ is >600%)”. Consider `Cc1cccc(CC2CCCC2)c1-c1nc2nc(c1C)OC[C@@H](CC(C)(C)C)N(Cc1nccc(N(C)C(C)C)n1)C(=O)c1cccc(c1)S(=O)(=O)N2` (atropisomer, axis not shown) [Compound 265], for which, in assay [2] (with 1 μM Ivacaftor), the “HBE Activity at 10 μM” value was “+++ (+++ is >600%)”.

As for `Cc1cccc(CC2CCCC2)c1-c1nc2nc(c1C)OC[C@@H](CC(C)(C)C)N(Cc1ncc(CC(C)C)cn1)C(=O)c1cccc(c1)S(=O)(=O)N2` (atropisomer, axis not shown) [Compound 268], in assay [2] (with 1 μM Ivacaftor), the EC50 was less than 1000 nM and the “HBE Max Activity” value is “+++ (+++ is >600%)”.

What is called EC50 is the concentration at which the effect is half-maximal.
